Laboratory results taken from patent US4594421A, “Imidazopyridine compounds” (priority 1984, dated 1986).
Read-outs that look alike come from different tables or passages of the source.

Legend:
[1] = system: phrenic-diaphragm preparation; assay: Neuromuscular blocking activity in vitro, phrenic-diaphragm preparation; parameters: species or system male Sprague-Dawley rats; conditions: rat phrenic-diaphragm, 37° C., cumulative concentrations, read-out: EC50 (effective concentration able to reduce the muscular contraction of 50%)
Description: (§1) The neuromuscular blocking activity has been evaluated:
in vitro, using the phrenic-diaphragm preparation according to the method described by Bulbring E. (Brit. J. Pharmac. Chemother. 1, 38, 1946). The preparation, taken from male Sprague-Dawley rats weighing 200-250 g, was placed into a bath for isolated organs, thermostatically kept at 37° C. and containing a nutritional liquid oxygenated with […] carboxygen. The phrenic nerve was stimulated by means of square wave impulses (12 per min., duration 0.5 msec., overmaximal voltage). […] The dose-effect curve, determined for each of them, allowed to calculate the EC50 or effective concentration able to reduce the muscular contraction of 50% (Table 1);

[2] = system: sciatic-gastrocnemious preparation; assay: Neuromuscular blocking activity in vivo, sciatic-gastrocnemious preparation; parameters: species or system male Sprague-Dawley rats; conditions: for ED50: iv, read-out: ED50 (effective dose causing the 50% reduction of muscular contraction)
Description: as §1
(§2) in vivo, using the sciatic-gastrocnemious preparation, substantially following the method described by Hughes R. (Br. J. Anaesth. 44, 27, 1972). Male Sprague-Dawley rats weighing 200-250 g, anaesthetized (urethane 1,2 g/kg i.p.) and submitted to forced ventilation, were treated. The sciatic nerve was stimulated at a rate of 6 impulses per min. by means of square waves and overmaximal voltage with a duration of 0.5 msec. The left carotid artery was incannulated for the continuous registration of arterial blood pressure and heart rate.
(§3) The compounds to be tested were administered by i.v. route at increasing doses, given at intervals of at least 30 min. from one to another and, in any case, after the effect of previous administration had completely exhausted.
(§4) In addition, the time of latence (the interval between the administration and the maximal effect) and that of complete recovery have been determined.

[3] = system: arterial blood pressure and heart rate; assay: Cardiovascular effects (arterial blood pressure and heart rate) in vivo; parameters: species or system male Sprague-Dawley rats; conditions: rat, i.v.; for Arterial blood pressure Δ % / Heart rate Δ %: at ED50 on muscular contraction
Description: as §2, §3, §4

[4] = Acute toxicity (LD50) in rat; parameters: species or system male Sprague-Dawley rats; conditions: in vivo, iv, Litchfield and Wilcoxon
Description: The LD50 were then calculated according to the method of Litchfield J. T. and Wilcoxon F. J. (J. Pharmac. Exp. Ther., 95, 99, 1949).

[5] = system: skeletal neuromuscular junction; conditions: known compound of the commerce; cited from earlier work
[6] = rat, i.v., anaesthetized (urethane)

With `Cc1c(-c2ccccc2)n(CCCCCCCCn2c(-c3ccccc3)c(C)[n+]3ccccc23)c2cccc[n+]12` [Example 3, 1,1'-(1,8-Octamethylene)bis(2-phenyl-3-methyl)imiadazo[1,2-a]pyridinium perchlorate] the EC50 [1] was 14.3 µM, the ED50 [2, 6] was 1.6 µg/kg and the “Latence (interval between the administration and the maximal effect)” value ([2]; rat, i.v.) was 1.2 min. For the same molecule, the “Recovery (time of complete recovery)” value ([2]; rat, i.v.) was 5.0 min, the “Arterial blood pressure Δ %” value [3] was -28% and the “Heart rate Δ %” value [3] was “+40%”. The LD50 [4] was 2 µmol/kg.
For `c1ccc(-c2c[n+]3ccccc3n2CCn2c(-c3ccccc3)c[n+]3ccccc23)cc1` [Example 10, 1,1'-(1,2-Ethylene)bis-2-phenylimidazo[1,2-a]pyridinium perchlorate], the EC50 [1] was 31.4 µM, the ED50 [2, 6] was 4 µg/kg and the “Latence (interval between the administration and the maximal effect)” value ([2]; rat, i.v.) was 2.8 min. For the same molecule, the “Recovery (time of complete recovery)” value ([2]; rat, i.v.) was 14.0 min, the “Arterial blood pressure Δ %” value [3] was -30% and the “Heart rate Δ %” value [3] was “+28%”. For the same molecule, the LD50 [4] was 8.8 µmol/kg.
In the case of `c1ccc(-c2c[n+]3ccccc3n2CCCCn2c(-c3ccccc3)c[n+]3ccccc23)cc1` [Example 9, 1,1'-(1,4-Tetramethylene)bis-2-phenylimidazo[1,2-a]pyridinium perchlorate], the EC50 [1] is reported as 28.9 µM, the ED50 [2, 6] is reported as 3.3 µg/kg and the “Latence (interval between the administration and the maximal effect)” value ([2]; rat, i.v.) is reported as 2.1 min. The “Recovery (time of complete recovery)” value ([2]; rat, i.v.) was 7.0 min, the “Arterial blood pressure Δ %” value [3] was -31% and the “Heart rate Δ %” value [3] was “+25%”. It also gave an LD50 [4] of 3.2 µmol/kg.
For `Cc1c(-c2ccccc2)n(CCCCCCn2c(-c3ccccc3)c(C)[n+]3ccccc23)c2cccc[n+]12` [Example 8, 1,1'-(1,6-Hexamethylene)bis(2-phenyl-3-methyl)imidazo[1,2-a]pyridinium perchlorate], the EC50 [1] was 13.6 µM, the ED50 [2, 6] was 1.3 µg/kg and the “Latence (interval between the administration and the maximal effect)” value ([2]; rat, i.v.) was 2.1 min. For the same molecule, the “Recovery (time of complete recovery)” value ([2]; rat, i.v.) was 7.7 min, the “Arterial blood pressure Δ %” value [3] was -40% and the “Heart rate Δ %” value [3] was “+68%”. It also gave an LD50 [4] of 2 µmol/kg.
For `Cc1c(-c2ccccc2)n(/N=N/n2c(-c3ccccc3)c(C)[n+]3ccccc23)c2cccc[n+]12` [Fazadinium bromide, 1,1-azabis 3-methyl-2-phenylimidazo 1,2-a pyridinium bromide, reference compound], the EC50 [1] was 13.9 µM, the ED50 [2, 6] was 1 µg/kg and the “Latence (interval between the administration and the maximal effect)” value ([2]; rat, i.v.) was 1.5 min. For the same molecule, the “Recovery (time of complete recovery)” value ([2]; rat, i.v.) was 6.6 min, the “activity in vivo” value ([2]; rat, i.v.) was “active” and the “Arterial blood pressure Δ %” value [3] was -16%. The “Heart rate Δ %” value [3] was “+30%”, the LD50 [4] was 1.5 µmol/kg and the “known activity of the standard” value [5] was “competitive skeletal muscle paralysing activity”.
With `c1ccc(-c2c[n+]3ccccc3n2CCCCCCCCn2c(-c3ccccc3)c[n+]3ccccc23)cc1` [Example 2, 1,1'-(1,8-Octamethylene)bis-2-phenylimidazo[1,2-a]piridinium perchlorate] the EC50 [1] was 11.9 µM, the ED50 [2, 6] was 1.9 µg/kg and the “Latence (interval between the administration and the maximal effect)” value ([2]; rat, i.v.) was 2.2 min. The “Recovery (time of complete recovery)” value ([2]; rat, i.v.) was 9.2 min, the “Arterial blood pressure Δ %” value [3] was -45% and the “Heart rate Δ %” value [3] was “+22%”. The LD50 [4] was 2.7 µmol/kg.
In the case of `Cc1c(-c2ccccc2)n(CCCCn2c(-c3ccccc3)c(C)[n+]3ccccc23)c2cccc[n+]12` [Example 4, 1,1'-(1,4-Tetramethylene)bis(2-phenyl-3-methyl)imidazo[1,2-a]pyridinium perchlorate], the EC50 [1] is reported as 28.7 µM, the ED50 [2, 6] is reported as 5 µg/kg and the “Latence (interval between the administration and the maximal effect)” value ([2]; rat, i.v.) is reported as 1.3 min. For the same molecule, the “Recovery (time of complete recovery)” value ([2]; rat, i.v.) was 6.2 min, the “Arterial blood pressure Δ %” value [3] was -28% and the “Heart rate Δ %” value [3] was “+1%”. For the same molecule, the LD50 [4] was 4.3 µmol/kg.
In the case of `c1ccc(-c2c[n+]3ccccc3n2CCCCCCn2c(-c3ccccc3)c[n+]3ccccc23)cc1` [Example 11, 1,1'-(1,6-Hexamethylene)bis-2-phenylimidazo[1,2-a]pyridinium perchlorate], the EC50 [1] is reported as 12.9 µM, the ED50 [2, 6] is reported as 2.1 µg/kg and the “Latence (interval between the administration and the maximal effect)” value ([2]; rat, i.v.) is reported as 2.3 min. The “Recovery (time of complete recovery)” value ([2]; rat, i.v.) was 8.8 min, the “Arterial blood pressure Δ %” value [3] was -40% and the “Heart rate Δ %” value [3] was “+42%”. The LD50 [4] was 3.1 µmol/kg.
For `Fc1ccc(-c2c[n+]3ccccc3n2CCCCCCn2c(-c3ccc(F)cc3)c[n+]3ccccc23)cc1` [Example 1, 1,1'-(1,6-Hexamethylene)bis[2-(4'-fluoro)phenyl]imidazo[1,2-a]pyridinium perchlorate], the EC50 [1] was 15 µM, the ED50 [2, 6] was 3 µg/kg and the “Latence (interval between the administration and the maximal effect)” value ([2]; rat, i.v.) was 2.2 min. The “Recovery (time of complete recovery)” value ([2]; rat, i.v.) was 7.9 min, the “Arterial blood pressure Δ %” value [3] was -37% and the “Heart rate Δ %” value [3] was “+28%”. For the same molecule, the LD50 [4] was 3.9 µmol/kg.
In the case of `Brc1ccc(-c2c[n+]3ccccc3n2CCCCCCn2c(-c3ccc(Br)cc3)c[n+]3ccccc23)cc1` [Example 7, 1,1'-(1,6-Hexamethylene)bis[2-(4-bromophenyl)]imidazo[1,2-a]pyridinium bromide], the EC50 [1] is reported as 15.4 µM, the ED50 [2, 6] is reported as 3 µg/kg and the “Latence (interval between the administration and the maximal effect)” value ([2]; rat, i.v.) is reported as 1.5 min. The “Recovery (time of complete recovery)” value ([2]; rat, i.v.) was 9.8 min, the “Arterial blood pressure Δ %” value [3] was -50% and the “Heart rate Δ %” value [3] was -8%. The LD50 [4] was 6 µmol/kg.
In the case of `COc1ccc(-c2c[n+]3ccccc3n2CCCCCCn2c(-c3ccc(OC)cc3)c[n+]3ccccc23)cc1` [Example 5, 1,1'-(1,6-Hexamethylene)bis[2-(4'-methoxy)phenyl]imidazo[1,2-a]pyridinium bromide monohydrate], the EC50 [1] is reported as 14.7 µM, the ED50 [2, 6] is reported as 1.9 µg/kg and the “Latence (interval between the administration and the maximal effect)” value ([2]; rat, i.v.) is reported as 1.5 min. The “Recovery (time of complete recovery)” value ([2]; rat, i.v.) was 6.4 min, the “Arterial blood pressure Δ %” value [3] was -39% and the “Heart rate Δ %” value [3] was “+26%”. The LD50 [4] was 2.6 µmol/kg.
With `Cc1c(-c2ccccc2)n(CCn2c(-c3ccccc3)c(C)[n+]3ccccc23)c2cccc[n+]12` [Example 12, 1,1'-(1,2-Ethylene)bis(2-phenyl-3-methyl)imidazo[1,2-a]pyridinium perchlorate] the EC50 [1] was 115 µM, the ED50 ([2]; Rattus norvegicus) was 5.6 µg/kg and the “Latence (interval between the administration and the maximal effect)” value ([2]; rat, i.v.) was 2.6 min. For the same molecule, the “Recovery (time of complete recovery)” value ([2]; rat, i.v.) was 12.2 min, the “Arterial blood pressure Δ %” value [3] was -5% and the “Heart rate Δ %” value [3] was “+6%”. For the same molecule, the “Arterial blood pressure Δ % at minimal active dose” value ([3]; at minimal active dose on muscular contraction) was -24% and the LD50 [4] was 9.7 µmol/kg.
